Columns and labels:
[1] = In vitro permeability, Franz diffusion cell; assay type: in vitro ADME
Method: The permeability coefficients of UMF were measured in a Franz diffusion cell of a vertical type (PermeGear, Inc., Hellertown, PA, USA) at 310.15 ± 0.1 K. The experimental setup is fully described and illustrated in our previous study. All the experiments were carried out with the help of a regenerated cellulose membrane with a molecular weight cut-off (MWCO) of 12–14 kDa (Standard Grade RC Dialysis Membrane, Flat Width 45 mm) pretreated with water for 30 min and dried under air. A cellulose membrane MWCO 6–8 kDa was additionally used for several experiments. The membrane effective surface area was 0.785 cm^2. It was placed between the donor (7 mL of the stock UMF solution) and acceptor (pure solvent without UMF—blank solution) chambers. In the case of the pH 2.0 donor solution, the blank solution at pH 7.4 was applied in the acceptor chamber in order to simulate the compound transfer to the blood plasma. Samples of 0.5 mL were withdrawn every 30 min from the acceptor chamber and replaced with an equal amount of pure buffer pH 7.4. The solutions were analyzed using a plate-type spectrophotometer (Spectramax 190; Molecular devices, Molecular Devices Corporation, California, USA) and a 96-well UV black plate (Costar). The plot of the cumulative amount of the compound (Q) permeated through the membrane of effective surface area (A) versus time (t) was constructed and the apparent permeability coefficient (Papp) was calculated by the equation:Papp = J/C0(1) where J is the flux through the membrane derived as a slope of the permeation plot (J = dQ/(A·dt)), and C0 is the UMF concentration in the donor solution. Papp values were taken as an average of at least 3 or more experiments.

[2] = Quantitative parameters of UMF solubilization by F-127 micelles (from phase solubility plots); assay type: physicochemical
Text: To elucidate the solubilizing potential of the micelles of F-127 towards UMF, we determined the solubilizing capacity (χ) equal the amount of UMF solubilized by one mole of F-127 using the equation given in Stephenson et al.:(2) χ=(S2−S20)/(Cpolym−cmc)=(SUMF−SUMF0)/(CF−127−cmc) where S2 and S20 are the total compound solubility at a specific polymer concentration in the solution and the intrinsic solubility, respectively, Cpolym is the polymer (F-127) concentration, cmc is the polymer critical micelle concentration, expressed in mol∙L^−1, and (Cpolym—cmc) is the concentration of the micelles. […] Solubilizing capacities were determined from the slopes of the dependences illustrated in Figure S2. […]
Micelle formation occurs above the critical micelle concentration and is accompanied by the removal of the hydrophobic tails of F-127 molecules from the aqueous surroundings, the association of monomers and the decrease of the free energy of the entire system. […] In order to quantify the apparent free energy of solubilization (transferring of the compound from the aqueous to the micellar phase) at 310.15 K, the following equation was applied:(4) ΔGS310.15K=−RT⋅lnKm/w where ΔGS310.15K is the apparent solubilization free energy, R is the universal gas constant, and Km/w is the micelle/water partition coefficient of UMF. […]

[3] = design: method as in earlier work; details: cited from earlier work
[4] = PXRD analysis of solid residuals after solubility experiments; assay type: physicochemical
Method: The powder XRD data were recorded under ambient conditions on a D2 Phaser (Bragg Brentano) diffractometer (Bruker AXS, Karlsruhe, Germany) with a copper X-ray source (λCuKα1 = 1.5406Å) and a high-resolution position-sensitive LYNXEYE XE-T detector. The samples were placed into the plate sample holders and rotated at a speed of 15 rpm during the data acquisition.
In order to trace possible transformations of the UMF base, the solid residuals left after each solubility experiment were isolated, dried under air and subjected to PXRD analysis together with the raw UMF base and UMF∙HCl∙H2O. […] Importantly, all the parameters obtained for the acidic solutions (solubility, permeability, micellization, and aggregation characteristics) refer to UMF∙HCl∙H2O, in spite of the fact that initially the UMF base was subjected to the experiments.

CCOC(=O)c1c(CSc2ccccc2)n(C)c2cc(Br)c(O)c(CN(C)C)c12 [UMF, 6-bromo-4-dimethylaminomethyl-5-hydroxy-1-methyl-2-phenylthiomethyl indole-3-carboxylic acid ethyl ester]
Permeability coefficient in pure buffer pH 7.4 greater than in pH 2.0 [1]: 2.1 fold
Permeability increase by EtOH in buffer pH 7.4 ([1]; 10% EtOH): 1.4 fold
Permeability increase by EtOH in buffer pH 7.4 ([1]; 20% EtOH): 1.2 fold
Permeability reduction by 4.0% F-127 vs pure buffer ([1]; buffer pH 7.4): 2.35 fold
Papp in 20% EtOH + 1.5% F-127 lower than in buffer pH 7.4 + 1.5% F-127 ([1]; pH 7.4): 5.1 fold
Papp in 20% EtOH + 1.5% F-127 lower than in buffer pH 7.4 +20% EtOH ([1]; pH 7.4): 10.8 fold
Papp in 20% EtOH + 1.5% F-127 lower than in pure buffer pH 7.4 ([1]; pH 7.4): 9.1 fold
Higher solubilizing potential of F-127 (Km/w) towards UMF base at pH 7.4 vs UMF∙HCl∙H2O at pH 2.0 [2]: approximately 5.4 fold
logKm/w ([2]; UMF-buffer pH 7.4-pluronic F-127 system): 3.88
pKa [3]: 6.0
Solid phase after dissolution (PXRD) ([4]; acidic buffer (pH 2.0)): transformed into the apparently more stable hydrochloride monohydrate
Solid phase after dissolution (PXRD) ([4]; all the systems with buffer pH 7.4): No transformations
